The results in this text go back to PubChem BioAssay AID2060340 (Molecular Pharmacology Branch, DTP, NCI, 2025).

The subject of this assay is 349418-098-R-PDC spheroids, viability, % test/control. Briefly: Anticancer human tumor 349418-098-R-PDC patient-derived lung adenocarcinoma cell line growth inhibition [IpAb]. The note with it: spheroids with HUVEC and MSC; for viability, T/C: stronger effect = lower value. Put shortly: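 Combinations with ipatasertib or abemaciclib were tested on tumour spheroids holding HUVEC (25%) and MSC (15%) alongside 60% malignant cells. Top concentration was at or near clinical Cmax (10 microM if undefined), descending in half-log steps.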

The mark [1] stands for this setting: curve of first compound, second compound 0.1 µM.
Where [2] appears, read: curve of first compound, second compound 0.316 µM.
[3] abbreviates: curve of first compound, second compound 1 µM.
Setting [4] is: curve of first compound, second compound 3.16 µM.
[5] abbreviates: curve of first compound, second compound 10 µM.
[6] abbreviates: second compound 0.1 µM, first compound 0.0316 µM.
[7] abbreviates: second compound 0.1 µM, first compound 0.1 µM.
The mark [8] stands for this setting: second compound 0.316 µM, first compound 0.0316 µM.
Where [9] appears, read: second compound 0.316 µM, first compound 0.1 µM.
The mark [10] stands for this setting: second compound 1 µM, first compound 0.0316 µM.
The mark [11] stands for this setting: second compound 1 µM, first compound 0.1 µM.
Setting [12] is: second compound 3.16 µM, first compound 0.0316 µM.
[13] abbreviates: second compound 3.16 µM, first compound 0.1 µM.
[14] abbreviates: second compound 10 µM, first compound 0.0316 µM.
[15] abbreviates: second compound 10 µM, first compound 0.1 µM.
The mark [16] stands for this setting: second compound 0.1 µM, first compound 0.316 µM.
Setting [17] is: second compound 0.1 µM, first compound 1 µM.
[18] abbreviates: second compound 0.1 µM, first compound 3.16 µM.
The mark [19] stands for this setting: second compound 0.1 µM, first compound 10 µM.
Setting [20] is: second compound 0.316 µM, first compound 0.316 µM.
[21] abbreviates: second compound 0.316 µM, first compound 1 µM.
Where [22] appears, read: second compound 0.316 µM, first compound 3.16 µM.
Where [23] appears, read: second compound 0.316 µM, first compound 10 µM.
Where [24] appears, read: second compound 1 µM, first compound 0.316 µM.
Setting [25] is: second compound 1 µM, first compound 1 µM.
The mark [26] stands for this setting: second compound 1 µM, first compound 3.16 µM.
Setting [27] is: second compound 1 µM, first compound 10 µM.
[28] abbreviates: second compound 3.16 µM, first compound 0.316 µM.
The mark [29] stands for this setting: second compound 3.16 µM, first compound 1 µM.
Setting [30] is: second compound 3.16 µM, first compound 3.16 µM.
Where [31] appears, read: second compound 3.16 µM, first compound 10 µM.
The mark [32] stands for this setting: second compound 10 µM, first compound 0.316 µM.
[33] abbreviates: second compound 10 µM, first compound 1 µM.
[34] abbreviates: second compound 10 µM, first compound 3.16 µM.
[35] abbreviates: second compound 10 µM, first compound 10 µM.

“And” between values parts separate entries of the source, which are not always exact repeats. Equal entries are not always repeated. A value given as a limit tells only on which side of the number the result lay.
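Note: spheroids exposed to compounds for 7 days.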

As to `Cn1ncnc1[C@H]1c2n[nH]c(=O)c3cc(F)cc(c23)N[C@@H]1c1ccc(F)cc1` + CC(C)NCC(C(=O)N1CCN(c2ncnc3c2C(C)CC3O)CC1)c1ccc(Cl)cc1, the 50% inhibitory concentration (IC50) – broadly, the concentration that gives 50% inhibition – runs as follows: under setting [1], over 100 nM; under setting [2], 0.621 nM; under setting [3], under 0.316 nM; under setting [4], under 0.316 nM; under setting [5], under 0.316 nM. Besides, the viability, T/C (in general, the ratio of treated to control) is 82.5% (second compound 0.1 µM, first compound 0.000316 µM); 80.5% (second compound 0.1 µM, first compound 0.001 µM); 77.3% (second compound 0.1 µM, first compound 0.00316 µM); 70% (second compound 0.1 µM, first compound 0.01 µM); 68.7% under setting [6]; 76.7% under setting [7]. Besides, the viability, T/C was 52.6% (second compound 0.316 µM, first compound 0.000316 µM); 48.4% (second compound 0.316 µM, first compound 0.001 µM); 42.8% (second compound 0.316 µM, first compound 0.00316 µM); 46.8% (second compound 0.316 µM, first compound 0.01 µM); 41.7% under setting [8]; 37% under setting [9]. For the same compound, the viability, T/C is 26.4% (second compound 1 µM, first compound 0.000316 µM); 24.1% (second compound 1 µM, first compound 0.001 µM); 18.9% (second compound 1 µM, first compound 0.00316 µM); 16.7% (second compound 1 µM, first compound 0.01 µM); 17.2% under setting [10]; 17.1% under setting [11]. Further, the viability, T/C is, setting by setting: (second compound 3.16 µM, first compound 0.000316 µM) 13.8%; (second compound 3.16 µM, first compound 0.001 µM) 15.8%; (second compound 3.16 µM, first compound 0.00316 µM) 11.1%; (second compound 3.16 µM, first compound 0.01 µM) 10.2%; under setting [12], 9.16%; under setting [13], 7.75%. In addition, the viability, T/C was 9.03% (second compound 10 µM, first compound 0.000316 µM); 7.63% (second compound 10 µM, first compound 0.001 µM); 6.62% (second compound 10 µM, first compound 0.00316 µM); 6.38% (second compound 10 µM, first compound 0.01 µM); 5.72% under setting [14]; 6.34% under setting [15].

On to `CCCS(=O)(=O)Nc1ccc(F)c(C(=O)c2c[nH]c3ncc(-c4ccc(Cl)cc4)cc23)c1F` + CC(C)NCC(C(=O)N1CCN(c2ncnc3c2C(C)CC3O)CC1)c1ccc(Cl)cc1, for which the IC50 under setting [1] was determined as 106 nM; the IC50 under setting [2] was under 31.6 nM; the half-maximal inhibitory concentration (IC50) under setting [3] was under 31.6 nM; the IC50 under setting [4] is under 31.6 nM; the concentration for half-maximal inhibition (IC50) under setting [5] was under 31.6 nM. In addition, the viability, T/C reads like this: under setting [6], 56.4%; under setting [7], 48.1%; under setting [16], 42.4%; under setting [17], 38.4%; under setting [18], 33.5%; under setting [19], 15.7%. Moreover, the viability, T/C is 32.9% under setting [8]; 29.4% under setting [9]; 29.8% under setting [20]; 21.7% under setting [21]; 21.4% under setting [22]; 11.2% under setting [23]. Besides, the viability, T/C was 19.1% under setting [10]; 16.6% under setting [11]; 11.9% under setting [24]; 10.1% under setting [25]; 11% under setting [26]; 7.7% under setting [27]. The viability, T/C is 9.81% under setting [12]; 7.85% under setting [13]; 7.36% under setting [28]; 6.91% under setting [29]; 7.18% under setting [30]; 6.15% under setting [31]. The viability, T/C is 6.76% under setting [14]; 6.33% under setting [15]; 5.46% under setting [32]; 5.62% under setting [33]; 5.53% under setting [34]; 4.47% under setting [35].

For the compound `CC(C)(C)c1cnc(CSc2cnc(NC(=O)C3CCNCC3)s2)o1`, the viability, T/C by setting is: (compound 0.00949 µM) 105% and 108%; (compound 0.03 µM) 90.5% and 85.3%; (compound 0.0949 µM) 2.46% and 15.2%; (compound 0.3 µM) 2.23% and 2.41%; (compound 0.949 µM) 3.07% and 3.11%; (compound 3 µM) 2.08% and 2.15%. The IC50 (curve of compound) is 50.9 nM and 53.6 nM.

Take `Cn1nccc1Nc1nccc(-c2ccn(C(CO)c3ccc(Cl)c(F)c3)c(=O)c2)n1` (configuration not stated) + CC(C)NCC(C(=O)N1CCN(c2ncnc3c2C(C)CC3O)CC1)c1ccc(Cl)cc1: the IC50 reads like this: under setting [1], under 31.6 nM; under setting [2], under 31.6 nM; under setting [3], under 31.6 nM; under setting [4], under 31.6 nM; under setting [5], under 31.6 nM. For the same compound, the viability, T/C by setting is: under setting [6], 43.3%; under setting [7], 35.9%; under setting [16], 33%; under setting [17], 29.7%; under setting [18], 21.5%; under setting [19], 17.9%. For the same compound, the viability, T/C is 23.7% under setting [8]; 20.2% under setting [9]; 17.9% under setting [20]; 16% under setting [21]; 16% under setting [22]; 14.6% under setting [23]. Further, the viability, T/C is 10.3% under setting [10]; 10.8% under setting [11]; 8.91% under setting [24]; 10.4% under setting [25]; 11.8% under setting [26]; 11% under setting [27]. The viability, T/C was 7.69% under setting [12]; 7.5% under setting [13]; 6.61% under setting [28]; 7% under setting [29]; 7.85% under setting [30]; 8.65% under setting [31]. Besides, the viability, T/C under setting [14] is 5.18%; the viability, T/C under setting [15] was 5.1%; the viability, T/C under setting [32] was 4.68%; the viability, T/C under setting [33] is 4.43%; the viability, T/C under setting [34] is 5.74%; the viability, T/C under setting [35] is 7%.

Take `CC(C)NCC(C(=O)N1CCN(c2ncnc3c2C(C)CC3O)CC1)c1ccc(Cl)cc1` (configuration not stated): the viability, T/C is 84.9% [middle of 13 runs] (compound 0.1 µM), 24.5% [middle of 13 runs] (compound 1 µM), 11.8% [middle of 13 runs] (compound 3.16 µM) and 7.07% [middle of 11 runs] (compound 10 µM). Also, the IC50 (compound alone, run of 05/18/2021) is 350 nM [middle of 13 runs].
